Laboratory results taken from patent US20150346214A1, “DETECTION OF MEMBRANE PROTEINS” (priority 2012, published 2015).
Entries after “also recorded” stand apart in the source; their conditions may differ.

Assays:
Aquaporin Z (AQPZ) [1] = target: T1, Aquaporin Z (AQPZ) (Escherichia coli, UniProt P60844); experiment: Phospholipid binding to AQPZ resolved by native MS / IM-MS in C8E4; parameters: species or system E. coli; settings: AQPZ in C8E4; optimised P:L:D ratio of Table 2
ammonia channel (AmtB) [2] = target: T2, ammonia channel (AmtB) (Escherichia coli, UniProt P69681); experiment: Gas-phase (collision-induced) unfolding IM-MS: stabilisation of AmtB by bound phospholipid; type: binding, E. coli; settings: +15 charge state, versus apo form
T2 sequence (P69681 26-428): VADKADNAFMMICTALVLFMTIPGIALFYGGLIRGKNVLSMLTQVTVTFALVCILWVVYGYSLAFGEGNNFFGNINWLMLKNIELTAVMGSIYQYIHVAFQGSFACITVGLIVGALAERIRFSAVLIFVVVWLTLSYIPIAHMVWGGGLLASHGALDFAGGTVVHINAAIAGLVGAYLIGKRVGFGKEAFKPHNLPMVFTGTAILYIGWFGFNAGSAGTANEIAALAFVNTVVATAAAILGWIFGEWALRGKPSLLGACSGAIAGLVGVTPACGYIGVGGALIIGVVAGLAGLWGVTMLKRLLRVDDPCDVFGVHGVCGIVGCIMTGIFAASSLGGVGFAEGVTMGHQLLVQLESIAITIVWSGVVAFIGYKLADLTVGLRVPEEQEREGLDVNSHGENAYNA
Method: (§1) IM-MS was used to resolve individual phospholipid-bound states of membrane proteins, in folded conformations, devoid of the complication of the lipid bilayer. Bound phospholipids were then ranked based on their ability to prevent gas-phase unfolding. Combining the IM-MS data for the three protein complexes with molecular dynamic (MD) simulations, probable lipid binding sites were then identified.
Ion mobility measurements were performed on a modified Synapt G1 HDMS instrument with the travelling-wave on mobility cell replaced by an 18-cm drift cell with radial RF on confinement and a linear voltage gradient to direct ions along the axis of transmission to the time-of-flight (TOF) mass analyser. Ion mobility mass spectrometer was typically set to a source pressure of 5-7 mBar, capillary voltage of 1.4-1.7 kV, capillary nanoflow of 0.03-0.2 mBar and argon as collision gas with flow rate set to 5-8 mL/min (˜6.6-6.7 e-2 mBar). Collision voltage ranged from 2-240 V with measurements taken at 5 V and 2 V steps for monitoring gas-phase unfolding of membrane and soluble protein complexes, respectively. The sample and extraction cone and trap bias voltages, quadrupole profile, and collision gas pressure were optimized for maximal ion intensity of the target membrane protein complex. Helium was the drift cell gas and set to a pressure of ˜1.6-1.8 Torr (40 ml/min flow rate). Pusher time, pulse width and TDC inhibit were set to 180, 7 and 7 μs, respectively. The ion guide/source (300 ms^−1, 10 V), trap (300 ms^−1, 0.2 V) and transfer (100 ms^−1, 10 V) travelling wave velocities and wave heights were kept constant. The mobility release time was set at 200 μs with a trap voltage of 30 V and extract voltage of 10 V. Pressure and temperature of the ion mobility cell was measured directly. Ion drift time (td) was determined as described in Bush et al (Analytical Chemistry, 2010, 82, 9557-.9565).
Ion mobility data were imported using a custom script provided by Waters at an m/z resolution of four in drift data and one in mass spectra for fitting. Mass spectra were smoothed and theoretical mass spectra were fitted as outlined above. A standardized integration window was employed for extracting arrival time distributions (ATD) using a resolution (R=[…]) of 1000 and a height cut-off of 25% for the modelled Gaussian to the respective m/z peak. […]
To extract quantitative values for the effects of phospholipid binding on unfolding pathways, an established equilibrium unfolding model, used extensively in solution studies involving chemical denaturation, was applied. […] By comparing the apo form of the protein with lipid bound states, the average stabilisation was calculated by fitting the unfolding pathway for the most abundant charge state, identifying four distinct intermediate states. […]

[3] = target: T3, mechanosensitive channel of large conductance (MscL) (Mycobacterium tuberculosis, UniProt P9WJN5); experiment: Phospholipid binding to MscL resolved by native MS / IM-MS in C8E4; settings: optimised P:L:D ratio of Table 2
T3 sequence (P9WJN5 1-151): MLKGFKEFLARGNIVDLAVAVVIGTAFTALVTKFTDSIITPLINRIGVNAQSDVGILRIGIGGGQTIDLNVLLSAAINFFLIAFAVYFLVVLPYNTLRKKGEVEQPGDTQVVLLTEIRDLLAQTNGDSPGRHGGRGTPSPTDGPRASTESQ

ammonia channel (AmtB) [4] = target: T2, ammonia channel (AmtB); experiment: Phospholipid binding to AmtB resolved by native MS / IM-MS in C8E4; parameters: species or system E. coli; settings: for # Bound (number of resolvable phospholipids bound): AmtB in C8E4, optimised P:L:D ratio of Table 2; for extent of phospholipid binding to AmtB: in words, co-transport into the gas phase
Aquaporin Z (AQPZ) [5] = target: T1, Aquaporin Z (AQPZ); experiment: Gas-phase (collision-induced) unfolding IM-MS: stabilisation of AQPZ by bound phospholipid; type: binding, E. coli; settings: +13 charge state, versus apo form
Method: as §1
Ion mobility measurements were performed on a modified Synapt G1 HDMS instrument with the travelling-wave on mobility cell replaced by an 18-cm drift cell with radial RF on confinement and a linear voltage gradient to direct ions along the axis of transmission to the time-of-flight (TOF) mass analyser. […] The mobility release time was set at 200 μs with a trap voltage of 30 V and extract voltage of 10 V. Pressure and temperature of the ion mobility cell was measured directly. Ion drift time (td) was determined as described in Bush et al (Analytical Chemistry, 2010, 82, 9557-.9565). […]
To extract quantitative values for the effects of phospholipid binding on unfolding pathways, an established equilibrium unfolding model, used extensively in solution studies involving chemical denaturation, was applied. […]

T1 sequence (P60844 whole entry): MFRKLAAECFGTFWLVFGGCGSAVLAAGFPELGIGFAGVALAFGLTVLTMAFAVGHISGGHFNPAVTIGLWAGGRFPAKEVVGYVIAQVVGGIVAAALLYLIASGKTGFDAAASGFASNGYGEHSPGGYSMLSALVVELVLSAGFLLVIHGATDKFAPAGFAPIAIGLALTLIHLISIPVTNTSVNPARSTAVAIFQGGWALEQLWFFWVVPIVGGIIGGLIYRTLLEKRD

**Q.** With `CCCCCCCC/C=C\CCCCCCCC(=O)O[C@H](COC(=O)CCCCCCCCCCCCCCC)COP(=O)(O)OC[C@H](N)C(=O)O` [PS, 1-palmitoyl-2-oleoyl-sn-glycero-3-phospho-L-serine (16:0-18:1)] as the molecule, how does the “# Bound (number of resolvable phospholipids bound)” value (“# Bound” for short) (Aquaporin Z (AQPZ) [1]) read?
**A.** 3

**Q.** And the “average stabilisation of AmtB by bound phospholipid (resistance to gas-phase unfolding)” value (ammonia channel (AmtB) [2])?
**A.** not correlated with significant stabilisation

**Q.** And the “# Bound” value [3]?
**A.** 2

**Q.** And the “# Bound” value (ammonia channel (AmtB) [4])?
**A.** 3

**Q.** And the “extent of phospholipid binding to AmtB” value (ammonia channel (AmtB) [4])?
**A.** extensive

**Q.** L-α-phosphatidylglycerol (E. coli) [PG] was tested. Which “# Bound” value (Aquaporin Z (AQPZ) [1]) did it give?
**A.** 3

**Q.** What about the “average stabilisation of AmtB by bound phospholipid (resistance to gas-phase unfolding)” value (ammonia channel (AmtB) [2]) of the same molecule?
**A.** dramatic increase in stabilisation; also recorded: significant stabilisation

**Q.** And the “# Bound” value [3]?
**A.** 2

**Q.** And the “# Bound” value (ammonia channel (AmtB) [4])?
**A.** 4

**Q.** And the bound phospholipid molecules (ammonia channel (AmtB) [4]; AmtB, moderate collision activation 175 V (FIG. 7a))?
**A.** one to four

**Q.** What does the source list for Cardiolipin (E. coli) [CDL]?
**A.** # Bound (number of resolvable phospholipids bound) (Aquaporin Z (AQPZ) [1]): 1; average stabilisation of AmtB by bound phospholipid (resistance to gas-phase unfolding) (ammonia channel (AmtB) [2]): significant stabilisation; # Bound (number of resolvable phospholipids bound) [3]: 1; # Bound (number of resolvable phospholipids bound) (ammonia channel (AmtB) [4]): 1; extent of phospholipid binding to AmtB (ammonia channel (AmtB) [4]): only low populations; average stabilisation of AQPZ by bound phospholipid (resistance to gas-phase unfolding) (Aquaporin Z (AQPZ) [5]): substantial increase in protein stability compared to all other phospholipids; also recorded: stabilises AQPZ significantly

**Q.** How did the “# Bound” value (Aquaporin Z (AQPZ) [1]) turn out when `CCCCCCCC/C=C\CCCCCCCC(=O)O[C@H](COC(=O)CCCCCCCCCCCCCCC)COP(=O)(O)O` [PA, 1-palrnitoyl-2-oleoyl-sn-glycero-3-phosphate (16:0-18:1)] was run?
**A.** 2

**Q.** And the “average stabilisation of AmtB by bound phospholipid (resistance to gas-phase unfolding)” value (ammonia channel (AmtB) [2])?
**A.** not correlated with significant stabilisation

**Q.** What about the “# Bound” value [3] of the same molecule?
**A.** 1

**Q.** What about the “# Bound” value (ammonia channel (AmtB) [4]) of the same molecule?
**A.** 3

**Q.** What about the “extent of phospholipid binding to AmtB” value (ammonia channel (AmtB) [4]) of the same molecule?
**A.** extensive
